Data: US5407925A (priority 1991, dated 1995)

How the values were obtained:
TE-671 [1] = test: intrathecal treatment of subarachnoid TE-671 human medulloblastoma xenografts in nude rats; assay type: in vivo, Female athymic nude rats; human medulloblastoma cell line; details: for loss of antigravity strength / increase in median survival: intrathecal
[2] = test system: human breast cancer cells; details: Kubota et al. 1983; cited from earlier work
TE-671 [3] = details: medulloblastoma cell line TE-671; cited from earlier work
murine leukemia cells = details: Hilton 1984; cited from earlier work
[4] = clinical evidence of toxicity of intrathecal treatment in tumor-bearing nude rats; details: either dose (final concentration 100 uM or 250 uM)
MOLT-4 = MOLT-4 (a T-cell leukemia); cited from earlier work
[5] = direct intrathecal administration, 100 uM in the cerebrospinal fluid; cited from earlier work
[6] = test system: rhabdomyosarcoma cell line; details: cited from earlier work
cells in vitro = details: compared with 4-hydrocyclophosphamide, Redwood et al. 1982; cited from earlier work
McF-7 = details: breast cancer cell line McF-7; cited from earlier work
[7] = test system: Burkitt's lymphoma cell lines; details: De Fabritiis et al. 1985; cited from earlier work
[8] = final concentration 250 uM, p less than 0.01

With `O=P1(N(CCCl)CCCl)NC(OO)CCO1` (stereo not shown) [4-HC, 4-hydroperoxycyclophosphamide] the “time by which loss of stepping and placing reflexes and ramp climbing ability preceded death” value (TE-671 [1]; both treatment studies (100 uM and 250 uM)) was “approximately 3 days”, the “loss of antigravity strength” value (TE-671 [1]; final CSF concentration 100 uM, day 8 after tumor inoculation, p=0.036) was “delay in the loss of antigravity strength” and the “increase in median survival” value (TE-671 [1]; final CSF concentration 100 uM, day 8 after tumor inoculation, p=0.04) was 20%. The “increase in median survival” value (TE-671 [1]; [8]) was 36%, the “loss of antigravity strength” value (TE-671 [1]; [8]) was “further delay in the loss of antigravity strength” and the “histopathology after death: subarachnoid tumor infiltrate” value (TE-671 [1]; sections from all animals, 4-HC-treated and saline-treated control groups, base of the brain to the cauda equina) was “diffuse subarachnoid infiltrate of tumor cells”. The activity in vitro [2] was “active in vitro”, the “concentration at which active” value (TE-671 [3]) was 12.8 µM and the activity in vitro (murine leukemia cells) was “active in vitro”. The “clinical evidence of toxicity” value [4] was “no clinical evidence of toxicity”, the “concentration at which active” value (MOLT-4) was 2.5 µM and the toxicity [5] was “without producing toxicity”. For the same molecule, the “concentration at which active” value [6] was 8 µM, the “toxicity on a molar basis to cells in vitro versus 4-hydrocyclophosphamide” value (cells in vitro) was “equal toxicity on a molar basis” and the “concentration at which active” value (McF-7) was 9.5 µM. The activity in vitro [7] was “active in vitro”.
